The record followed here is patent US20070010537A1, “Fused pyramidine derivative and use thereof” (priority 2004, published 2007).

Structures can show the parent of a compound that is named as a salt.

This assay deals with T1, human GnRH receptor (Homo sapiens, UniProt P30968).
T1 construct: expressed in transfected cells; host or cells: CHO (Chinese Hamster Ovary) cells
T1 sequence (P30968 1-328): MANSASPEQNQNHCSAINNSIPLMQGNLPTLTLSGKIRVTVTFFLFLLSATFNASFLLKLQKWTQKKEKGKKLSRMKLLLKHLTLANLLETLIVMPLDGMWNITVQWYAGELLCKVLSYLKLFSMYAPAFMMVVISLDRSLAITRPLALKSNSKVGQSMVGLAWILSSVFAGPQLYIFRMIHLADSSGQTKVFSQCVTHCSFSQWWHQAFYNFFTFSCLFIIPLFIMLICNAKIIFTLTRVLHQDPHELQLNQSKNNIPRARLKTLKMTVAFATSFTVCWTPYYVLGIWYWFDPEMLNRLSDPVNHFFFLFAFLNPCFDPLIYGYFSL
The assay is described as follows: 125I-leuprorelin binding assay, human GnRH receptor CHO cell membrane fraction. Conditions: 10 nM of the testing compound, room temperature for 1 hour, read-out: Binding inhibitory ratio (%). How it is done: (1) Production of ^125I-Leuprorelin
10 μL of a 3×10^−4 M aqueous solution of leuprorelin and 10 μL of 0.01 mg/mL lactoperoxidase were placed in a tube, and 10 μL (37 MBq) of a Na^125I solution was added thereto. After stirring, 10 μL of 0.001% H2O2 was added to allow the mixture to undergo a reaction at room temperature for 20 minutes. 700 μL of a 0.05% TFA solution was added to stop the reaction, and purification by reversed phase HPLC was carried out. The conditions for HPLC are described below. ^125I-leuprorelin was eluted at a retention time of 26 to 27 minutes.
(2) Production of CHO (Chinese Hamster Ovary) Cell Membrane Fraction Containing Human GnRH Receptor
Human GnRH receptor-expressing CHO cells were cultured until the cells were reached a 90% confluent state in a T-150 flask. The cells were separated using 0.02% EDTA-PBS and were centrifuged at 500×g for 5 minutes. A homogenate buffer for cells (10 mM NaHCO3, 1 mM EDTA, 1 mM PMSF, 0.5 μg/mL Pepstatin, 2 μg/mL Leupeptin, pH 7.4) was added to the cell pellet, and the mixture was homogenized with a Polytron homogenizer. After centrifugation of the homogenate at 4° C. and at 1000×g for 10 minutes, the supernatant was placed in an ultracentrifuge tube and was centrifuged at 4° C. and at 49,300×g for 1 hour to obtain a precipitate of a membrane fraction. This precipitate was suspended in an assay buffer (50 mM Tris-HCl, 150 mM NaCl, 5 mM EDTA, pH 7.4) and then dispensed and stored at −80° C., so that the suspension can be thawed every time it is taken for use.
(3) Measurement of the Binding Inhibitory Rate of 125I-Leuprorelin
A ^125I-leuprorelin binding assay was carried out using 200 μL of an assay buffer containing 10 μg of human GnRH receptor membrane fraction, […] of ^125I-leuprorelin and 10 nM of the testing compound.
The non-specific binding radioactivity was measured in the presence of 1 μM of non-labeled leuprorelin. After leaving the mixture to stand at room temperature for 1 hour, 125I-leuprorelin was captured on a GF/C filter (PerkinElmer, Inc.), and the filter was washed with ice-cold 50 mM Tris-HCl (pH 7.4) using a cell harvester. After drying the filter, a liquid scintillation cocktail for microplate was added, and the membrane-bound radioactivity was measured using a TopCount.
The value of (TB-SB)/(TB-NSB)×100 (SB: radioactivity upon addition of the compound, TB: maximum binding radioactivity, NSB: non-specific binding radioactivity) was calculated to determine the binding inhibitory rate in the presence of 10 nM of each testing material.
Take `O=c1[nH]c2ccccc2c(=O)n1-c1cc(S(=O)(=O)N2CCCc3ccccc32)ccc1Cl` [Example 6(4), 3-(2-Chloro-5-(3,4-dihydroquinolin-1(2H)-ylsulfonyl)phenyl)quinazoline-2,4(1H,3H)-dione]: the inhibition at 0.01 µM amounted to 88.5%. With `O=c1[nH]c2ccccc2c(=O)n1-c1cc(S(=O)(=O)N2CCCCc3ccccc32)ccc1Cl` [Example 7(5), 3-(2-Chloro-5-(2,3,4,5-tetrahydro-1H-1-benzazepin-1-ylsulfonyl)phenyl)-2,4(1H,3H)-quinazolinedione], the inhibition at 0.01 µM stood at 95.6%. Consider `O=c1[nH]c2ccccc2c(=O)n1-c1cc(S(=O)(=O)N2CCCOc3ccccc32)ccc1Cl` [Example 7(8), 3-(2-Chloro-5-(3,4-dihydro-1,5-benzoxazepin-5(2H)-ylsulfonyl)phenyl)-2,4(1H,3H)-quinazolinedione], for which the inhibition at 0.01 µM was found to be 87.6%. The result for `O=c1[nH]c2ccccc2c(=O)n1-c1cc(S(=O)(=O)N2CCCc3ccccc32)ccc1F` [Example 7(22), 3-[5-(3,4-Dihydroquinolin-1(2H)-ylsulfonyl)-2-fluorophenyl]quinazoline-2,4(1H,3H)-dione] reads 75.5%.

In the case of `O=c1[nH]c2ccccc2c(=O)n1-c1cc(S(=O)(=O)N2CCCCc3sccc32)ccc1Cl` [Example 7(70), 3-[2-Chloro-5-(5,6,7,8-tetrahydro-4H-thieno[3,2-b]azepin-4-ylsulfonyl)phenyl]quinazoline-2,4(1H,3H)-dione], the inhibition at 0.01 µM came to 94.5%. Under `N=c1c2ccccc2[nH]c(=O)n1-c1cc(S(=O)(=O)N2CCCc3ccccc32)ccc1Cl` [Example 8(1), 3-(2-Chloro-5-(3,4-dihydro-1(2H)-quinolinylsulfonyl)phenyl)-4-imino-3,4-dihydro-2(1H)-quinazoline trifluoroacetate] stands 91.7%; under `CN(c1ccccc1)S(=O)(=O)c1ccc(Cl)c(-n2c(=O)[nH]c3ccccc3c2=N)c1` [Example 8, 4-Chloro-3-(4-imino-2-oxo-1,4-dihydro-3(2H)-quinazolinyl)-N-methyl-N-phenylbenzenesulfonamide trifluoroacetate], 84.7%. In the case of `CN(C(=O)c1ccc(Cl)c(-n2c(=O)[nH]c3ccccc3c2=O)c1)c1ccccc1` [Example 14, 4-Chloro-3-(2,4-dioxo-1,4-dihydroquinazolin-3(2H)-yl)-N-methyl-N-phenylbenzamide], the inhibition at 0.01 µM amounted to 88.9%.

As for `CN(C(=O)c1cc(-n2c(=O)[nH]c3cccc(CO)c3c2=O)c(Cl)s1)c1ccccc1` [Example 21(12), 5-Chloro-4-[5-(hydroxymethyl)-2,4-dioxo-1,4-dihydroquinazolin-3(2H)-yl]-N-methyl-N-phenylthiophene-2-carboxamide], the inhibition at 0.01 µM amounted to 84.2%.

With `COC(=O)c1cccc2[nH]c(=O)n(-c3cc(S(=O)(=O)N4CCCc5ccccc54)ccc3Cl)c(=O)c12` [Example 30, Methyl 3-[2-chloro-5-(3,4-dihydroquinolin-1(2H)-ylsulfonyl)phenyl]-2,4-dioxo-1,2,3,4-tetrahydroquinazoline-5-carboxylate], the inhibition at 0.01 µM worked out at 98%.

As for `O=C(O)c1cccc2[nH]c(=O)n(-c3cc(S(=O)(=O)N4CCCc5ccccc54)ccc3Cl)c(=O)c12` [Example 31, 3-[2-Chloro-5-(3,4-dihydroquinolin-1(2H)-ylsulfonyl)phenyl]-2,4-dioxo-1,2,3,4-tetrahydroquinazoline-5-carboxylic acid], the inhibition at 0.01 µM was 98.2%. Under `O=c1[nH]c2cccc(CO)c2c(=O)n1-c1cc(S(=O)(=O)N2CCCc3ccccc32)ccc1Cl` [Example 36, 3-[2-Chloro-5-(3,4-dihydroquinolin-1(2H)-ylsulfonyl)phenyl]-5-(hydroxymethyl)quinazoline-2,4(1H,3H)-dione] stands 96.7%; under `N#Cc1sc(S(=O)(=O)N2CCCCc3ccccc32)cc1-n1c(=O)[nH]c2ccccc2c1=O` [Example 42, 3-(2,4-Dioxo-1,4-dihydroquinazolin-3(2H)-yl)-5-(2,3,4,5-tetrahydro-1H-1-benzazepin-1-ylsulfonyl)thiophene-2-carbonitrile], 77.4%. The result for `CN(C(=O)c1ccc(Cl)c(-n2c(=O)[nH]c3cccc(CO)c3c2=O)c1)c1ccccn1` [Example 46(1), 4-Chloro-3-[5-(hydroxymethyl)-2,4-dioxo-1,4-dihydroquinazolin-3(2H)-yl]-N-methyl-N-pyridin-2-ylbenzamide] reads 98.2%; that for `O=c1[nH]c2cccc(CO)c2c(=O)n1-c1cc(S(=O)(=O)N2CCCCc3ccccc32)sc1Cl` [Example 47, 3-[2-Chloro-5-(2,3,4,5-tetrahydro-1H-1-benzazepin-1-ylsulfonyl)-3-thienyl]-5-(hydroxymethyl)quinazoline-2,4(1H,3H)-dione], 94.8%; that for `CN(C(=O)c1cc(-n2c(=O)[nH]c3cccc(CO)c3c2=O)c(Cl)s1)c1ccccc1Cl` [Example 73(1), 5-Chloro-N-(2-chlorophenyl)-4-[5-(hydroxymethyl)-2,4-dioxo-1,4-dihydroquinazolin-3(2H)-yl]-N-methylthiophene-2-carboxamide], 91.5%. The result for `CN(C(=O)c1cc(-n2c(=O)[nH]c3cccc(CO)c3c2=O)c(Cl)s1)c1cccc(Cl)c1` [Example 73(2), 5-Chloro-N-(3-chlorophenyl)-4-[5-(hydroxymethyl)-2,4-dioxo-1,4-dihydroquinazolin-3(2H)-yl]-N-methylthiophene-2-carboxamide] reads 93.8%; that for `Cc1ccccc1N(C)C(=O)c1cc(-n2c(=O)[nH]c3cccc(CO)c3c2=O)c(Cl)s1` [Example 73(4), 5-Chloro-4-[5-(hydroxymethyl)-2,4-dioxo-1,4-dihydroquinazolin-3(2H)-yl]-N-methyl-N-(2-methylphenyl)thiophene-2-carboxamide], 82.2%. With `Cc1cccc(N(C)C(=O)c2cc(-n3c(=O)[nH]c4cccc(CO)c4c3=O)c(Cl)s2)c1` [Example 73(5), 5-Chloro-4-[5-(hydroxymethyl)-2,4-dioxo-1,4-dihydroquinazolin-3(2H)-yl]-N-methyl-N-(3-methylphenyl)thiophene-2-carboxamide], the inhibition at 0.01 µM is 95.6%. The result for `CN(C(=O)c1cc(-n2c(=O)[nH]c3cccc(CO)c3c2=O)c(Cl)s1)C1CCCCC1` [Example 73, 5-Chloro-N-cyclohexyl-4-[5-(hydroxymethyl)-2,4-dioxo-1,4-dihydroquinazolin-3(2H)-yl]-N-methylthiophene-2-carboxamide] reads 79%; that for `NC(=O)c1cccc2[nH]c(=O)n(-c3cc(S(=O)(=O)N4CCCc5ccccc54)ccc3Cl)c(=O)c12` [Example 85, 3-[2-Chloro-5-(3,4-dihydroquinolin-1(2H)-ylsulfonyl)phenyl]-2,4-dioxo-1,2,3,4-tetrahydroquinazoline-5-carboxamide], 94%; that for `CC(C)CN(C)C(=O)c1cc(-n2c(=O)[nH]c3cccc(CO)c3c2=O)c(Cl)s1` [Example 89, 5-Chloro-4-[5-(hydroxymethyl)-2,4-dioxo-1,4-dihydroquinazolin-3(2H)-yl]-N-isobutyl-N-methylthiophene-2-carboxamide], 76.2%. `CC(C)(O)c1cccc2[nH]c(=O)n(-c3cc(S(=O)(=O)N4CCCc5ccccc54)ccc3Cl)c(=O)c12` [Example 100(1), 3-[2-Chloro-5-(3,4-dihydroquinolin-1(2H)-ylsulfonyl)phenyl]-5-(1-hydroxy-1-methylethyl)quinazoline-2,4(1H,3H)-dione]: the inhibition at 0.01 µM came to 99.9%.
